Publication PMC4434572, “Identification of novel drugs to target dormant micrometastases” (BMC Cancer, 2015)
Where two headings read alike, the source gives them in different places.

Experiments:
MDA-MB-435 cells = test: Proliferation (CFDA-AM esterase assay) of cells grown on SISgel, plastic or Matrigel, 48 h drug exposure; format: cell-based; conditions: for SI (EC50-P/EC50-S): ratio of EC50 on plastic versus SISgel
Text: (§1) The libraries were obtained from the NCI (Diversity Library I) comprised of 2,918 compounds and a 10,000 compound diversity library from ChemBridge, Inc. (DiverSet-EXP). The NCI library is no longer available in the form used here, but how it was constructed is described (http://dtp.nci.nih.gov/branches/dscb/diversity_explanation.html). The ChemBridge library is a subset (Set Code NM1024) of the full 50,000 compound library (http://www.chembridge.com/screening_libraries/diversity_libraries/). Compounds were diluted to 100 μM before use. SISgel was prepared as described previously from powdered porcine small intestine submucosa obtained from Cook Biotech (W. Lafayette, IN). It is a natural product that is used extensively in tissue engineering as a bioscaffold. J82 bladder cancer cells and other cell lines were obtained from the ATCC (Bethesda, MD). The basic principle is that cells grown on any ECM are, in general, expected to show higher resistance to anticancer compounds than when grown on plastic. Therefore, compounds that show a higher activity toward cancer cells on a normal ECM than on a plastic surface would be candidates to target suppressed, micrometastatic cells. Efficacy in vitro was assessed by plating 30,000 cells in 50 μL of high glucose DMEM with penicillin-streptomycin and 10 % fetal calf serum on SISgel in a 96-well plate containing 50 μL of gelled SISgel per well. Cells were allowed to attach and assume the SISgel phenotype for 48 h. A matching plate without SISgel was prepared 24 h later by pipetting 3,000 cells in 100 μL of high glucose DMEM with penicillin-streptomycin and 10 % fetal calf serum into each well of 96 well plate. The cells were allowed to attach and grow for 24 h. These numbers of cells gave approximately equal replication rates at the time drug was added for cells grown on the plastic surface or SISgel as determined by the fraction of S-phase cells identified by flow cytometry. The cells were exposed to drug in fresh medium for 48 h, at which time the cell number was determined using the CFDA-AM cellular esterase proliferation assay (cat. #C1354, Life Technologies). For screening the results are reported as the ratio of cell count of cells on the plastic surface to the cell count on SISgel. An initial difference of 1.5 fold identified potential hits. All potential hits were confirmed in triplicate. Those compounds that replicated were confirmed by a full dose–response study yielding an EC50 using five wells per drug concentration. Data were analyzed using nonlinear regression to a sigmoid curve with Prism 4 (GraphPad Software, Inc., LaJolla, CA). Potential hits that were confirmed by dose–response using J82 were also tested with MDA-MB-435 breast cancer, PC-3 metastatic prostate cancer, Capan1 pancreatic cancer and the J82 bladder cancer cell lines.

MDA-MB-231 (breast) = test: Proliferation EC50 on SISgel vs monolayer; format: cell-based; conditions: n = 6-8
PC-3 (prostate) = test: Proliferation EC50 on SISgel vs monolayer; format: cell-based; conditions: n = 6-8
Text: as §1

[1] = tested on: cancer cells on SISgel or plastic; test: Activity of leads and analogs on cancer cells grown on plastic vs SISgel (cell line not stated); format: cell-based; conditions: for Hit: YES/NO; for SR: ratio IC50-p/IC50-S
Outline: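 Cells on SISgel (30,000/well, 48 h attachment) or plastic (3,000/well, 24 h) were exposed to compound (diluted to 100 μM) for 48 h in high-glucose DMEM with 10 % FCS. Cell number quantified by CFDA-AM esterase assay; results given as plastic:SISgel cell-count ratio, hits confirmed in triplicate, curves fitted sigmoidally.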

mice = test: Toxicity / maximum tolerated dose in mice; conditions: for NOAEL dose, osmotic pump: Alzet #2004 osmotic pump, 4 weeks; for MTD / toxicity in mice: mice
AGS (gastric) = test: Proliferation EC50 on Matrigel vs SISgel; format: cell-based
Capan-1 (pancreatic) = test: Proliferation EC50 on SISgel vs monolayer; format: cell-based; conditions: n = 6-8
Text: as §1

J82 (bladder) = test: Proliferation EC50 on SISgel vs monolayer; format: cell-based; conditions: n = 6-8
Text: as §1

[2] = PC-3 monolayer, read-out: EC50 Monolayer
[3] = PC-3 on SISgel, read-out: EC50 SISgel
[4] = MDA-MB-435 cells on SISgel, read-out: EC50-S
[5] = MDA-MB-435 cells on plastic, read-out: EC50-P
[6] = cells on SISgel, read-out: IC50-S
[7] = cells on plastic, read-out: IC50-p

In the case of `COc1cccc2c1C(=O)c1c(O)c3c(c(O)c1C2=O)C[C@@](O)(C(=O)CO)C[C@@H]3O[C@H]1C[C@H](N)[C@H](O)[C@H](C)O1` [Doxorubicin, reference compound], the EC50 (MDA-MB-435 cells; Homo sapiens, MDA-MB-435 cells on SISgel, read-out: EC50-S) is reported as 45.4 µM, the EC50 (MDA-MB-435 cells; Homo sapiens, MDA-MB-435 cells on plastic, read-out: EC50-P) is reported as 47.8 µM and the “SI (EC50-P/EC50-S)” value (MDA-MB-435 cells) is reported as 1.05. For the same compound, the EC50 (MDA-MB-231 (breast); Homo sapiens, MDA-MB-231 monolayer, read-out: EC50 Monolayer) was 45.4 ± 1.9 µM, the EC50 (MDA-MB-231 (breast); Homo sapiens, MDA-MB-231 on SISgel, read-out: EC50 SISgel) was 47.8 ± 4 µM and the EC50 (PC-3 (prostate); [2]) was 104 ± 6.1 µM. The EC50 (PC-3 (prostate); [3]) was 102 ± 7 µM.
`O=S(=O)([O-])c1ccc2c(N=Nc3cccc4ccccc34)c(O)c(S(=O)(=O)[O-])cc2c1.[Na+].[Na+]` [DT310, 4-(1-naphthalenylhydrazinylidene) -3-oxonaphthalene-2,7-disulfonic acid] was tested, and the EC50 (MDA-MB-435 cells; [4]) was 35.9 µM, the EC50 (MDA-MB-435 cells; [5]) was 86.5 µM and the “SI (EC50-P/EC50-S)” value (MDA-MB-435 cells) was 2.4. For the same compound, the Hit [1] was “YES”, the IC50 [1, 6] was 36 µM and the IC50 [1, 7] was 87 µM. For the same compound, the SR [1] was 2.4, the “NOAEL dose, osmotic pump” value (mice) was 23.4 µg/h and the MTD (mice) was 65 mg/kg. For the same compound, the “toxicity in mice” value (mice) was “very low toxicity”.
`O=S(=O)([O-])c1cc(O)c2c(O)c(N=Nc3cccc4ccccc34)c(S(=O)(=O)[O-])cc2c1.[Na+].[Na+]` [DT320, 4,5-Dihydroxy-3-(1-naphthalenylazo)-2,7-naphthalenedisulfonic acid disodium salt] gave an EC50 (MDA-MB-435 cells; [4]) of 8.7 µM, an EC50 (MDA-MB-435 cells; [5]) of 78 µM and a Ratio (MDA-MB-435 cells; Matrigel/SISgel EC50, MDA-MB-435) of 2.4. For the same compound, the “SI (EC50-P/EC50-S)” value (MDA-MB-435 cells) was 9.0, the EC50 (AGS (gastric); AGS on Matrigel, read-out: EC50 Matrigel) was 104 µM and the EC50 (AGS (gastric); AGS on SISgel, read-out: EC50 SISgel) was 45.1 µM. For the same compound, the Ratio (AGS (gastric); Matrigel/SISgel EC50, AGS) was 2.3, the EC50 (MDA-MB-231 (breast); MDA-MB-231 monolayer, read-out: EC50 Monolayer) was 78.1 ± 7.1 µM and the EC50 (MDA-MB-231 (breast); MDA-MB-231 on SISgel, read-out: EC50 SISgel) was 8.7 ± 1.1 µM. It also gave an EC50 (Capan-1 (pancreatic); Capan-1 monolayer, read-out: EC50 Monolayer) of 80.1 ± 10.2 µM, an EC50 (Capan-1 (pancreatic); Capan-1 on SISgel, read-out: EC50 SISgel) of 22.9 ± 4.8 µM and an EC50 (J82 (bladder); J82 monolayer, read-out: EC50 Monolayer) of 71.2 ± 8.1 µM. The EC50 (J82 (bladder); J82 on SISgel, read-out: EC50 SISgel) was 30.9 ± 4.8 µM, the EC50 (PC-3 (prostate); [2]) was 41.5 ± 4.1 µM and the EC50 (PC-3 (prostate); [3]) was 19.7 ± 2 µM. For the same compound, the Hit [1] was “YES”, the IC50 [1, 6] was 9 µM and the IC50 [1, 7] was 78 µM. The SR [1] was 9.0, the “NOAEL dose, osmotic pump” value (mice) was 26.7 µg/h and the MTD (mice) was 75 mg/kg. For the same compound, the “toxicity in mice” value (mice) was “very low toxicity”.
